Data taken from patent US20050153856A1, “Methods and compositions for killing spores” (priority 2002, published 2005).

Test system: Bacillus thuringiensis spores
Assay: Killing of spores (Example 2): microtiter serial 10-fold dilution, growth read with MTT
Format: cell-based
Conditions: wells 7-8: KI only, no laccase, no methylsyringate, 1 hour 24 degrees Celsius pH 6.5
Procedure: Spore suspension was pipetted into the wells in row A of a microtiter plate. The reaction was initiated by the addition of laccase solution.
The microtiter plate was incubated at room temperature (24 degrees Celsius) for 1 hour.
In the tables growth is indicated with a “+” symbol.

Measured: growth

[I-].[K+] [KI, Potassium iodide]
+: 10-fold dilution step 4 | listed as B, 10-fold dilution step 1 | listed as C, 10-fold dilution step 2 | listed as D, 10-fold dilution step 3 | listed as F, 10-fold dilution step 5 | listed as G, 10-fold dilution step 6
